# Test results taken from article PMC8700777, “Identification of the EdcR Estrogen-Dependent Repressor in Caenibius tardaugens NBRC 16725: Construction of a Cellular Estradiol Biosensor” (Genes, 2021).
# Assays:
# [1] = test system: EdcR (TetR-like repressor, EGO55_13520); test: EdcR-dependent Pb-msf-gfp reporter de-repression in E. coli DH10B (with RT-PCR in C. tardaugens ΔedcA); format: cell-based, Escherichia coli DH10B
# [2] = test system: EdcR (TetR-like repressor, EGO55_13520); test: EdcR-dependent Pb-msf-gfp reporter de-repression in E. coli DH10B; format: cell-based, Escherichia coli DH10B
Structure (SMILES),EC50 [1] [nM],EC50 [2] [nM]
"C[C@]12CC[C@@H]3c4ccc(O)cc4CC[C@H]3[C@@H]1CCC2=O [E1, estrone]",1380,
"C[C@]12CC[C@@H]3c4ccc(O)cc4CC[C@H]3[C@@H]1CC[C@@H]2O [E2, 17β-estradiol]",,3320
